Patent publication US20220096515A1, “Methods and Formulations for Preventing Neurological or Psychiatric Disorders” (Huntington Medical Research Institutes, priority 2020, published 2022)

Key:
Format in all cases: in vivo, mouse
wildtype CD1 mice = assay: Increasing dose regimen of NAD+ in wildtype CD1 mice, H&E of MGE; conditions: i.p.
Experimental: Histology, immunohistochemistry, and microscopic analysis: Paraffin immunohistochemistry (IHC) was performed on embryonic brains only while frozen section IHC was used on both embryonic and adult brains. Briefly, for paraffin IHC-E18 brains were fixed in zinc fixative (BD Biosciences PharMingen) for 24 h and processed for paraffin histology. Histological stainings with hematoxylin (Vector Laboratories) and eosin (Sigma) were performed on 8 μm coronal sections. Lectin histochemistry (with biotinylated isolectin B4, 1:50, Sigma) as well as IHC was performed on 20 μm sections. Primary antibodies used for IHC were as follows: anti-PHH3 (1:200, Millipore) and anti-NKX2.1, (1:50; Sigma) followed by secondary detection with AlexaFluor conjugates (Invitrogen). DAPI (Vector Laboratories) was used to label nuclei. For frozen section IHC, E18 and P90 brains were removed, fixed in 4% PFA for 24 hours, cryo-protected in sucrose gradient, embedded into OCT medium for frozen blocks; sectioned at 40 μm on a cryostat and immunostained with anti-GABA (1:80, Sigma) and anti -PROX1 (1:80, Millipore) antibodies. Twenty sections from each brain were used for IHC and histology experiments. Uniform penetration of antibodies or stains throughout the section was ascertained and quality of the staining in each digital section was examined. […]

[1] = Litter size and pup growth after prenatal treatment; conditions: prenatal NAD^+ treatment
Gabrb3^ECKO mice [2] = assay: Light-dark transition test; conditions: after prenatal treatment
Experimental: (§1) Behavioral Experiments: Mice were housed in our animal facility with a 12-hour light cycle with ad libitum access to food and water. Offspring stayed with their mothers until weaning at PND 21 after which males and females were separated. Before all behavioral testing, mice were acclimated to the testing room for 1 hour. Behavioral assays were performed according to established protocols referenced here: self-grooming, light-dark box, tail suspension test, Y-maze, open field locomotion activity, three chamber social interaction test and nest building with nestlets and with shredded paper. Both males and females were used for all behavioral assays. Experimenters scoring behaviors were blinded to the genotypes and treatment. Sample sizes for each assay are noted in figure legends.
(§2) Anxiety was next assessed with the classic light-dark transition test which triggers a struggle between the desires to explore a novel environment versus natural aversion of a brightly illuminated open space. […] The Y maze spontaneous alternation test was used to evaluate for spatial learning and memory in the three groups of mice. After introduction to the center of the maze, the mice were given free access to all three arms. […] The total number of arm entries and the sequence of entries are recorded in order to calculate the percentage of alternation. […]

Gabrb3^ECKO mice [3] = assay: Y maze spontaneous alternation test; conditions: vs saline-treated Gabrb3^ECKO mice
Experimental: as §1, §2

Gabrb3^ECKO mice [4] = assay: Self-grooming; conditions: after prenatal treatment
Experimental: as §1
Therefore, behavioral tests were performed to screen for stress, anxiety, locomotion, cognition, and sociability in saline-treated Gabrb3^fl/fl mice, saline-treated Gabrb3^ECKO mice and NAD^+-treated Gabrb3^ECKO mice. Mice from saline and NAD^+-treated groups were housed individually in cages containing wood chip bedding and two nestlets (pressed cotton) (FIGS. 16A-16D) or more naturalistic material like shredded paper strips (FIGS. 16E-16H). […] This rescue of home cage social behavior was a robust indication of well-being in NAD^+-treated Gabrb3^ECKO mice. […]

Question: What does the source list for `NC(=O)c1ccc[n+]([C@@H]2O[C@H](COP(=O)([O-])OP(=O)(O)OC[C@H]3O[C@@H](n4cnc5c(N)ncnc54)[C@H](O)[C@@H]3O)[C@@H](O)[C@H]2O)c1` [NAD^+]?
Answer: cell cluster in MGE (H&E) (wildtype CD1 mice; 10 mg, 20 mg and 40 mg per mouse): a similar cell cluster in the MGE; lowest effective dose (wildtype CD1 mice): 10 mg per mouse; growth of pups [1]: grew normally to adulthood; litter size [1]: did not have any effect on litter size; time in light vs dark sides (Gabrb3^ECKO mice [2]): spent equivalent times between the light and dark sides of the open field; percentage alternations (Gabrb3^ECKO mice [3]): significant increase in percentage alternations; severe grooming behavior (Gabrb3^ECKO mice [4]): ameliorated
